# From patent US4215110A, “Method of treating hypertension” (Merck & Co., Inc., priority 1978, dated 1980)
# System: spontaneously hypertensive (SH) rats
# Assay: antihypertensive activity test in spontaneously hypertensive (SH) rats
# Type: in vivo, rat
# Conditions: administered intraperitoneally
# Procedure: The present tripeptides have antihypertensive activity. This antihypertensive activity was determined using a test procedure which involved administration of representative compounds to spontaneously hypertensive (SH) rats.
structure (smiles),measurement,value
"NC(=O)[C@@H]1CCCN1C(=O)[C@H](Cc1c[nH]cn1)NC(=O)[C@@H]1CCC(=O)N1 [TRH, L-pyroglutamyl-L-histidyl-L-proline-amide]",antihypertensive activity,significant antihypertensive activity
